# Measurements published in patent US7601745B2, “Heterocyclic NF-kB inhibitors” (4SC AG, priority 2004, dated 2009).
# Test system: A549-NF-κB-SEAP reporter cells
# Experiment: Inhibition of NF-κB-induced inflammation ([…] NINA Instant Assay, SEAP reporter)
# Format: cell-based
# Settings: NF-κB inflammation assay
# Source text: For the determination of anti-inflammatory activity of the compounds the […]® NINA Instant Assay from Cell Culture Service GmBH was used. This assay is based on recombinant A549-NF-κB-SEAP reporter cells preseeded in 96-well flat bottom plates. As the transfected reportergen for SEAP (secreted embryonic alkaline phosphatase) is under transcriptional control of a NF-κB-responsive element, the expression of this reporter is activated upon stimulation with TNF-α. SEAP secretion into the culture supernatant can be detected by the chemiluminescent substrate CSPD®. Test compounds that inhibit the NF-κB activation show reduced SEAP activity and reduced luminescent readout.
# Following 18 h of reactivation at 37° C., 5% CO2 and 90% relative humidity, the cells were incubated with 0.01 up to 100 μM of test compound for 4.5 h before stimulation with 2 ng/ml TNF-α. After stimulation with TNF-α for 22 h endogenous phosphatases were inactivated and CSPD® substrate was supplied for 40 min. SEAP activity then was quantified by measuring luminescence as relative light units (RLU) using a Tecan Ultra reader. Each data point was recorded in quadruplicates and EC50 values were calculated via fitting function and the Microsoft Excel Solver.
row,SMILES,Biological activity (inhibition in the NF-κB inflammation assay)
1,N=C(NC(=O)c1csc(N2CCN(Cc3ccccc3)CC2)n1)Nc1nc2ccccc2[nH]1 [compound 30],+++ (“+++” stands for 90-100% inhibition)
2,N=C(NC(=O)c1csc(N2CCOCC2)n1)Nc1nc2ccccc2[nH]1 [compound 49],+++ (“+++” stands for 90-100% inhibition)
3,Cc1cc2nc(NC(=O)c3csc(NC(=O)c4ccccc4OC(F)(F)F)n3)[nH]c2cc1C [compound 25],+++ (“+++” stands for 90-100% inhibition)
4,N=C(NC(=O)c1coc(NC(=O)c2ccc(C(F)(F)F)c(F)c2)n1)Nc1nc2ccccc2[nH]1 [compound 27],+++ (“+++” stands for 90-100% inhibition)

# Same assay, conditions: compounds of formula (I); TNF-α stimulated reporter cells; test concentration not given
row,SMILES,"Biological activity (NF-κB inflammation assay, inhibition)"
1,O=C(c1csc(C2CCN(C(=O)c3ccccc3OC(F)(F)F)CC2)n1)N1CCN(c2ncnc3nc[nH]c23)CC1 [compound 129],+ (“+” stands for 50-80% inhibition)
2,O=C(c1cccnc1)N1CCC(c2nc(C(=O)N3CCN(c4cccc(C(F)(F)F)c4)CC3)cs2)CC1 [compound 222],+ (“+” stands for 50-80% inhibition)
3,O=C(c1csc(C2CCN(Cc3cccc(OC(F)(F)F)c3)CC2)n1)N1CCN(c2cccc(C(F)(F)F)c2)CC1 [compound 115],++ (“++” means 80-90%)
4,O=C(c1csc(C2CCN(Cc3ccc(OC(F)(F)F)cc3)CC2)n1)N1CCN(c2cccc(C(F)(F)F)c2)CC1 [compound 172],+ (“+” stands for 50-80% inhibition)
5,O=C(c1csc(C2CCN(CCC(c3ccccc3)c3ccccc3)CC2)n1)N1CCN(c2cccc(C(F)(F)F)c2)CC1 [compound 35],+++ (“+++” stands for 90-100% inhibition)
6,O=C(c1csc(C2CCN(C(=O)c3ccccc3OC(F)(F)F)CC2)n1)N(CCO)Cc1ccccc1 [compound 148],++ (“++” means 80-90%)
7,COc1ccccc1N1CCC(c2nc(C(=O)N3CCN(c4cccc(C(F)(F)F)c4)CC3)cs2)CC1 [compound 158],+ (“+” stands for 50-80% inhibition)
8,O=C(c1csc(C2CCN(c3cc(C(F)(F)F)ccn3)CC2)n1)N1CCN(c2cccc(C(F)(F)F)c2)CC1 [compound 118],+ (“+” stands for 50-80% inhibition)
9,O=C(c1csc(C2CCN(c3ccc(OC(F)(F)F)cc3)CC2)n1)N1CCN(c2cccc(C(F)(F)F)c2)CC1 [compound 154],+ (“+” stands for 50-80% inhibition)
10,COc1ccc(OC)c(N2CCC(c3nc(C(=O)N4CCN(c5cccc(C(F)(F)F)c5)CC4)cs3)CC2)c1 [compound 29],++ (“++” means 80-90%)
11,O=C(c1csc(C2CCN(C(=O)c3ccccc3OC(F)(F)F)CC2)n1)N(CCc1ccccc1)Cc1ccccc1 [compound 149],+ (“+” stands for 50-80% inhibition)
12,COc1nc(OC)nc(N2CCN(C(=O)c3csc(C4CCN(C(=O)c5ccccc5OC(F)(F)F)CC4)n3)CC2)n1 [compound 127],+ (“+” stands for 50-80% inhibition)
13,O=C(Cc1ccc(F)cc1)N1CCC(c2nc(C(=O)N3CCC(n4nnc5cc(C(F)(F)F)ccc54)CC3)cs2)CC1 [compound 181],+ (“+” stands for 50-80% inhibition)
14,O=C(Cc1ccc(F)cc1)N1CCC(c2nc(C(=O)N3CCC(n4nnc5ccccc54)CC3)cs2)CC1 [compound 182],+ (“+” stands for 50-80% inhibition)
15,COc1cc(N2CCC(c3nc(C(=O)N4CCN(c5cccc(C(F)(F)F)c5)CC4)cs3)CC2)nc(OC)n1 [compound 164],++ (“++” means 80-90%)
16,O=C(c1csc(C2CCN(S(=O)(=O)c3cc(C(F)(F)F)cc(C(F)(F)F)c3)CC2)n1)N1CCN(c2cccc(C(F)(F)F)c2)CC1 [compound 201],++ (“++” means 80-90%)
17,O=C(c1csc(C2CCN(Cc3ccccc3OC(F)(F)F)CC2)n1)N1CCN(c2cccc(C(F)(F)F)c2)CC1 [compound 109],+ (“+” stands for 50-80% inhibition)
18,O=C(c1csc(C2CCN(C(=O)c3ccccc3OC(F)(F)F)CC2)n1)N1CCC(n2nnc3ccccc32)CC1 [compound 111],+ (“+” stands for 50-80% inhibition)
19,CN1CCOc2cc(C(=O)N3CCC(c4nc(C(=O)N5CCN(c6cccc(C(F)(F)F)c6)CC5)cs4)CC3)ccc21 [compound 210],++ (“++” means 80-90%)
20,O=C(c1csc(C2CCN(S(=O)(=O)c3ccccc3Br)CC2)n1)N1CCN(c2cccc(C(F)(F)F)c2)CC1 [compound 196],+ (“+” stands for 50-80% inhibition)
21,O=C(O)C1=C(C(=O)N2CCC(c3nc(C(=O)N4CCN(c5cccc(C(F)(F)F)c5)CC4)cs3)CC2)CCCC1 [compound 190],+ (“+” stands for 50-80% inhibition)
22,O=C(Cc1ccc(F)cc1)N1CCC(c2nc(C(=O)N3CCN(c4ccccc4)CC3)cs2)CC1 [compound 180],+ (“+” stands for 50-80% inhibition)
23,CSc1nccc(N2CCN(C(=O)c3csc(C4CCN(C(=O)c5ccccc5OC(F)(F)F)CC4)n3)CC2)n1 [compound 124],+ (“+” stands for 50-80% inhibition)

# Same assay, conditions: compounds of formula (II); TNF-α stimulated reporter cells; test concentration not given
row,SMILES,"Biological activity (NF-κB inflammation assay, inhibition)"
1,COc1ccccc1N1CCN(C(=O)c2csc(NC(=O)c3ccccc3OC(F)(F)F)n2)CC1 [compound 44],++ (“++” means 80-90%)
2,N#Cc1ccc(C(=O)NCC2CCN(c3nc(C(=O)N4CCN(c5cccc(C(F)(F)F)c5)CC4)cs3)CC2)cc1 [compound 102],+ (“+” stands for 50-80% inhibition)
3,O=C(Nc1nc(C(=O)N2CCN(c3ccc(Cl)c(Cl)c3)CC2)cs1)c1ccccc1OC(F)(F)F [compound 41],+++ (“+++” stands for 90-100% inhibition)
4,O=C(c1csc(N2CCN(c3ccc(F)cc3)CC2)n1)N1CCN(c2cccc(C(F)(F)F)c2)CC1 [compound 69],++ (“++” means 80-90%)
5,O=C(Nc1nc(C(=O)N2CCN(C(c3ccccc3)c3ccccc3)CC2)cs1)c1ccccc1OC(F)(F)F [compound 58],++ (“++” means 80-90%)
6,O=C(c1csc(N2CCN(c3cccc(C(F)(F)F)c3)CC2)n1)N1CCN(c2cccc(C(F)(F)F)c2)CC1 [compound 67],+ (“+” stands for 50-80% inhibition)

# Same assay, conditions: compounds of formula (Ia); TNF-α stimulated reporter cells; test concentration not given
row,SMILES,"Biological activity (NF-κB inflammation assay, inhibition)"
1,O=C(Nc1ccc(F)cc1)N1CCC(c2nc(C(=O)N3CCN(c4cccc(C(F)(F)F)c4)CC3)cs2)CC1 [compound 143],+ (“+” stands for 50-80% inhibition)
2,COc1cc(NC(=O)N2CCC(c3nc(C(=O)N4CCN(c5cccc(C(F)(F)F)c5)CC4)cs3)CC2)cc(OC)c1OC [compound 81],++ (“++” means 80-90%)
3,O=C(Nc1ccccc1OC(F)(F)F)N1CCC(c2nc(C(=O)N3CCN(c4cccc(C(F)(F)F)c4)CC3)cs2)CC1 [compound 79],+++ (“+++” stands for 90-100% inhibition)

# Same assay, conditions: compounds of formula (Ic); TNF-α stimulated reporter cells; test concentration not given
row,SMILES,"Biological activity (NF-κB inflammation assay, inhibition)"
1,COc1cc2c(cc1OC)CN(C(=O)c1csc(C3CCN(C(=O)Cc4ccc(F)cc4)CC3)n1)CC2 [compound 161],+ (“+” stands for 50-80% inhibition)
